Values of other authors as cited in patent US9050341B2, “Methods of treating drug resistant and other tumors by administering 6,7-dialkoxy quinazoline derivatives” (NATCO PHARMA LIMITED, priority 2009, dated 2015).
Where a name gives a salt, the structure may show the parent alone.

Settings: beagle dogs; source not stated; cited from earlier work

## C#Cc1cccc(Nc2ncnc3cc(OCCOC)c(OCCOC)cc23)c1 [Erlotinib HCl, N-(3-Ethylnylphenyl)-6,7-bis(2-methoxyethoxy)-4-quinazolinamine]
  no observed adverse effect level (NOAEL), corresponding value: 5 mg/kg b.wt/day
